Reference: BindingDB's records for patent US11590142 (Bugworks Research, 2023)

Target: DNA gyrase (Escherichia coli, UniProt P0AES4+P0AES6)
Assay: Enzyme Inhibition Assay
Procedure: The reactions were then started with the addition of 60 ng relaxed pBR322 plasmid DNA and continued for 45 min at 37° C. The reaction mixture contained 35 mM Tris.HCl (pH 7.5), 24 mM KCl, 1.8 mM spermidine, 4 mM MgCl2, 2 mM DTT, 6.5% (w/v) glycerol, 0.1 mg/mL BSA, and 1 mM ATP. The reaction was then stopped by addition of 0.75 L of Proteinase K (20 mg/mL) and 3 μL of 2% SDS and further incubated at 37° C. for 30 min. This was followed by the addition of 4 μL of STEB (40% (w/v) sucrose, 100 mM Tris-HCl pH8, 1 mM EDTA, 0.5 mg/ml Bromophenol Blue), and the supercoiled/relaxed forms of plasmid DNA were separated by agarose gel electrophoresis. The 1% agarose gels were run for 3 h at 4V/cm in 1×TAE (40 mM Tris, 20 mM Acetic acid, 1 mM EDTA). To visualize the DNA the gels were stained for 10 min with 0.7 g/mL ethidium bromide and excess dye was removed by several washes with water. IC50 were determined by quantifying the supercoiled and relaxed DNA in each of the reactions from a gel image by a densitometric method using the Quantity One Software (Bio-rad).

Row | Compound | IC50 [nM]
1 | Cn1c(=O)cnc2ccc(OCCNC[C@H]3CN(c4ccc5c(n4)NC(=O)CO5)C(=O)O3)nc21 [US11590142, Compound 3] | 47
2 | Cn1c(=O)ccc2ncc(OCCNC[C@H]3CN(c4ccc5c(n4)NC(=O)CO5)C(=O)O3)nc21 [US11590142, Compound 5] | 32
